Results published in patent publication US9499484B2, “Indole, indoline derivatives, compositions comprising them and uses thereof” (priority 2012, dated 2016).
Where a name gives a salt, the structure may show the parent alone. Read-outs that look alike come from different tables or passages of the source.

What was measured:
BuChE = molecular target: T1, BuChE (UniProt P81908); assay type: biochemical, human or equine serum; settings: read-out: IC50 BuChE 120 min; Table 3; 120 min incubation
T1 construct: 120 min incubation; BuChE IC50
Protocol: (§1) B. Measurement of Acetylcholinesterase (AChE) and Butylcholinesterase (BuChE) Inhibition In Vitro
(§2) The enzyme was incubated at 37° C. with 6-10 concentrations of the compounds tested and samples were collected at 15, 30, 60 and 120 min Aliquots were transferred to an Elisa multiscan microplate reader (Labsystems) at 15-60 sec time intervals for the determination of residual AChE activity, with Ascent PC software. […] The % inhibition of AChE by each concentration was calculated by comparison with the activity of the enzyme in the absence of drug. […] BuChE-inhibitory activity was determined as described above using BuChE (Sigma Israel) with butylthiocholine iodide (BuTh) 0.075M as a substrate.

[1] = Radical scavenging, glucose oxidase/luminol luminescence; assay type: biochemical; settings: concentration reducing luminescence/radical by 50%; mean ± SD, three independent experiments
Protocol: A. Measurement of Radical Scavenging
A mixture comprising glucose oxidase (GO), luminol, sodium selenite [IV] ([…]) and cobalt [II] (Co^+2) all in Hank's Balance Salt Solution (HBSS) was used (Ginsburg et al, 2004). The production of H2O2 produces a burst of luminescence within 30-60 sec, which lasts for 7-10 min. The luminescence involves oxidation of SEL+5 to it SEL+6 and also the generation of oxidants, which are catalyzed by Co^+2. This method mimics infection and inflammation conditions in which there is an accumulation of several oxidant species. This method provides a source of several radicals. Reduction in luminescence by the compounds is due to their ability to sequester radicals and was measured after addition of several concentrations of each compound. The concentration of each compound that reduced the luminescence by 50% was calculated.

AChE = molecular target: T2, AChE (UniProt P23795); assay type: biochemical, human or bovine erythrocytes; settings: Table 3; 120 min incubation; read-out: IC50 AChE 120 min
T2 sequence (P23795 1-613): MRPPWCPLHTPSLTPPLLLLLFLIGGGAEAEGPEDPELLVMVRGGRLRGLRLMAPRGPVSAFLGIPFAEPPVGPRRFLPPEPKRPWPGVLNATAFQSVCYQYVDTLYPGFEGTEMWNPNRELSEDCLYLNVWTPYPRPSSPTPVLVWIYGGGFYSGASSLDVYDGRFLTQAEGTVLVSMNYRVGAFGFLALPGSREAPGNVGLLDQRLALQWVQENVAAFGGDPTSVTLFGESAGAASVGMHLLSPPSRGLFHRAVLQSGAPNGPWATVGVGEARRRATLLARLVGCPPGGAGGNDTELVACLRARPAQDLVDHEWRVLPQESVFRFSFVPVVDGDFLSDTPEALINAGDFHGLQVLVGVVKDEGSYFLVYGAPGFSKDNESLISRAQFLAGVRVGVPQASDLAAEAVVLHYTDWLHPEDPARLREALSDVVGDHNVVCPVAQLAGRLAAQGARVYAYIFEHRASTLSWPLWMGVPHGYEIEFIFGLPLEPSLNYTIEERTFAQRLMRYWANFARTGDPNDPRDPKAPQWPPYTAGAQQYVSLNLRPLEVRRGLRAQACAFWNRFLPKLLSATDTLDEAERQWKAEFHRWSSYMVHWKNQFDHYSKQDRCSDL
Protocol: as §1, §2

[2] = system: rat cardiac myoblasts (H9c2); test: Protection against H2O2-induced cell death in cardiomyocytes, Alamar Blue; assay type: cell-based; settings: concentration(s) giving >50% protection
Protocol: C. Measurement of Protective Activity Against Oxidative Stress in Cell Cultures
Compounds of the invention were tested for their potential to protect against cell death induced by oxidative stress in a cell line derived from rat cardiac myoblasts (H9c2) (Hescheler et al., 1991). Cells were cultured in Dulbecco's Modified Eagle's Medium (DMEM), 4500 mg/L D-glucose with 10% foetal calf serum (FCS), 10000 U/mL penicillin, […] streptomycin and 25 μg/mL Amphotericin B at 37° C. with 95% air and 5% CO2. One day prior to the measurement, cells were seeded in 96 well-plates at a density of 5,000 cells/well and incubated with 100 μM H2O2 for 1 h. […] Cells were incubated with different compounds of the invention in several concentrations ranging from 0.0001-100 μM, for 1, 4 or 7 h prior to addition of H2O2. Cell viability was measured by means of Alamar Blue (AbD Serotec, BUF012A). In order to compare the protective effect of the compounds this degree of cell death was normalized to 100% in each experiment. The effect of the drugs is expressed as percent reduction of this value.

TNF-α, RAW 264.7 cells = test: TNF-α reduction in LPS-stimulated RAW 264.7 macrophages; assay type: cell-based, mouse
NO, RAW 264.7 cells = test: NO reduction in LPS-stimulated RAW 264.7 macrophages; assay type: cell-based, mouse
[3] = system: NO, BV2 mouse microglial cells; test: NO reduction in LPS-stimulated BV2 microglia; assay type: cell-based; settings: for Reduction in NO levels by at >20%, BV2 Microglia range: concentration range, None = no reduction up till 100 nM
Protocol: (§3) The BV2 mouse microglial cells were created by infecting primary mouse microglia with v-raf/v-myc oncogen-carrying retrovirus and donated by Dr. Sigal Fleisher—Berkovich (Ben-Gurion University of the Negev). The cells were cultured in RPMI 1640 containing 0.4 mM L-Glutamine, 10% FCS, 100 units/ml penicillin, 100 μg/ml streptomycin and maintained in a humidified incubator at 37° C. with 5% CO2. For measurement of the effect of compounds on the release of NO the cells were seeded in a density of 80,000 cells/ml and confluence of about 60%, and incubated with test compounds (in the absence of FCS) for […] All the medium was removed and fresh medium containing FCS and LPS (10 μg/ml) added and the cells maintained at 37° C. for 24 h. The release of NO into the medium was determined by measurement of nitrite levels using Griess reagent reaction. For measurement of protein levels of cytokines cells were seeded in a density of 80,000 and incubated with test compounds (in the absence of FCS) and then with LPS as described above. The medium was centrifuged and supernatants collected after 6 h for TNF-α (Biolegend) and after 20 h for IL-6 (Biolegend).

[4] = system: TNF-α, BV2 mouse microglial cells; test: TNF-α reduction in LPS-stimulated BV2 microglia; assay type: cell-based; settings: for Reduction in TNF-α levels, BV2 Microglia range: concentration range, None = no reduction up till 100 nM
Protocol: as §3

[5] = system: ChE (AChE, BuChE) in plasma, muscle, spleen, brain; settings: after ip and or oral administration in mice
Protocol: E. Acetylcholinesterase (AChE) and Butylcholinesterase (BuChE) Inhibition Ex Vivo
Compounds of the invention or saline were administrated by intraperitoneal (ip) injection or gavage to groups of 6-7 male ICR or Balb C mice (5-6 weeks of age). The mice were sacrificed 15, 30, 60 or 120 min after drug administration and the brain (minus cerebellum), spleen, and muscle were rapidly removed, weighed and put on ice. Blood was also collected in heparinised tubes, centrifuged at 14000 rpm at room temperature for 4 mM to provide plasma. Phosphate buffer pH 7 was added to each tissue to produce concentrations of 1 mg/mL for brain and spleen and 8 mg/mL for muscle. The tissues were homogenised in cold phosphate buffer pH 7 containing 0.1% Triton and centrifuged at 14000 rpm. Aliquots of plasma and the supernatant of all tissues were incubated with AcTh or BuTh and DTNB in phosphate buffer pH 7 and the rate of development of the yellow colour was measured as described above. Enzyme activity was measured for each time and drug concentration and percent inhibition of the AChE or BuChE activity was calculated by comparison with that of control mice injected with saline. Results are represented as p moles acetylthiocholine or butythiocholine hydrolysed/min/gm tissue.

Radical scavenging, Sin1 = assay type: biochemical; settings: mean ± SD, three independent experiments
[6] = Mus musculus, RAW264.7, 6 h, read-out: Reduction in TNF-α levels, RAW Macrophages % peak reduction
[7] = concentration range; None = no reduction up till 100 nM
[8] = cells in μM, no effect ≦ 100 μM given as >100

Compound | IC50 (BuChE) [µM] | IC50 [1] [µM] | Cardiomyocte cell line Conc′ >50% protection H2O2 Alamar blue ([2]; cells in nM) [nM] | Reduction in TNF-α levels, BV2 Microglia range [4] | Cardiomyocte cell line Conc′ >50% protection H2O2 Alamar blue [2, 8] | also measured
CCCCN(C)C(=O)Oc1ccc2c(c1)NCC2CCC(=O)OC (stereo not drawn) [AN-677, 3-(2-(Methoxycarbonyl)ethyl)-1-indoline-6-yl butylmethylcarbamate hydrochloride] | 404 | 24.1 ± 0.18 | 1 to 10 |  |  | IC50 (AChE): 62.3 µM
CCN(C)C(=O)Oc1ccc2c(c1)NCC2CCC(=O)O (stereo not drawn) [AN-681, 3-(6-(Ethyl(methyl)carbamoyloxy)indolin-3-yl) propanoic acid hydrochloride] | 10 | 1.14 ± 0.09 |  | None |  | Emax (TNF-α, RAW 264.7 cells; [6]): 29.2 ± 5.6%; Reduction in TNF-α levels, RAW Macrophages range (TNF-α, RAW 264.7 cells; [7]): 0.1 to 100 nM; Emax (NO, RAW 264.7 cells; Mus musculus, RAW264.7, 24 h, read-out: Reduction in NO levels, RAW Macrophages % peak reduction): 50.1 ± 4.1%; Reduction in NO levels by at >20%, RAW Macrophages range (NO, RAW 264.7 cells; [7]): 10^−1-100 nM; Reduction in NO levels by at >20%, BV2 Microglia range [3]: None
COC(=O)CCC1CNc2cc(OC(=O)N(C)c3ccc(OC)cc3)ccc21 (stereo not drawn) [AN-685, Methyl 3-(6-((4-methoxyphenyl)(methyl)carbamoyloxy)indolin-3-yl)propanoate hydrochloride] | 54 | 3.41 ± 0.02 | 0.001 to 0.1 |  |  | 
COC(=O)CCC1CN(C)c2cc(OC(=O)N(C)c3ccc(OC)cc3)ccc21 (stereo not drawn) [AN-687, Methyl 3-(6-((4-methoxyphenyl)(methyl)carbamoyloxy)-1-methylindolin-3-yl)propanoate hydrochloride] | 372 | 2.24 ± 0.03 |  |  | 100 to 10000 nM | 
CCCCN(C)C(=O)Oc1ccc2c(c1)N(C)CC2CCC(=O)OC (stereo not drawn) [AN-691, Methyl 3-(6-(butyl(methyl)carbamoyloxy)-1-methylindolin-3-yl)propanoate hydrochloride] | 66.8 | 6.27 ± 0.05 |  |  | 100000 nM | 
COC(=O)CCC1CNc2cccc(OC(=O)N(C)c3ccc(OC)cc3)c21 (stereo not drawn) [AN-819, 3-(3-methoxy-3-oxopropyl)-4-(((4-methoxyphenyl)(methyl)carbamoyl)oxy) indolin-1-ium hydrochloride] | 4.6 | 19 ± 0.6 | 0.001 to 1 |  |  | ChE inhibition in plasma, muscle, and spleen [5]: inhibited ChE; IC50 (Radical scavenging, Sin1): 3.18 ± 0.2 µM
CCN(C)C(=O)Oc1cccc2c1C(CCC(=O)OC)CN2 (stereo not drawn) [AN-827, 3-(2-(Methoxycarbonyl)ethyl)indolin-4-yl ethylmethylcarbamate hydrochloride] | 0.3 | 1.46 ± 0.05 |  | 10^−1-100 nM |  | Emax (TNF-α, RAW 264.7 cells; [6]): 30 ± 3%; Reduction in TNF-α levels, RAW Macrophages range (TNF-α, RAW 264.7 cells; [7]): 10^−1-100 nM; Reduction in TNF-α levels, BV2 Microglia % peak reduction [4]: 38.5 ± 3.2%; ChE inhibition in plasma, muscle, and spleen [5]: inhibited ChE; IC50 (Radical scavenging, Sin1): 4.55 ± 0.48 µM
COC(=O)CCC1CNc2cccc(O)c21 (stereo not drawn) [AN-832, Methyl 3-(4-hydroxyindolin-3-yl)propanoate hydrochloride] |  | 0.67 ± 0.05 |  | 10^−1-100 nM |  | inhibition of the level of TNF-α induced in RAW cells by LPS (FIG. 3) (TNF-α, RAW 264.7 cells): inhibition; Emax (TNF-α, RAW 264.7 cells; Mus musculus, RAW264.7, 6 h; read-out: Reduction in TNF-α levels, RAW Macrophages % peak reduction): 39.2 ± 2.6%; Emax (NO, RAW 264.7 cells; Mus musculus, RAW264.7, 24 h; read-out: Reduction in NO levels, RAW Macrophages % peak reduction): 46.1 ± 3%; Reduction in NO levels by at >20%, BV2 Microglia range [3]: None; Reduction in TNF-α levels, BV2 Microglia % peak reduction [4]: 38.2 ± 3.2%; IC50 (Radical scavenging, Sin1): 3.54 ± 0.21 µM
COC(=O)CCC1CN(C)c2cccc(O)c21.Cl (stereo not drawn) [AN-833, Methyl 3-(4-hydroxy-1-methylindolin-3-yl)propanoate hydrochloride] |  | 0.45 ± 0.03 |  |  | no effec ≦ 100 μM | 
O=C(O)CCC1CNc2cccc(O)c21 (stereo not drawn) [AN-834, 3-(4-hydroxyindolin-3-yl)propanoic acid hydrochloride] |  | 1.44 ± 0.04 | 0.1 to 10 |  |  | 
CCN(C)C(=O)Oc1cccc2c1C(CCC(=O)O)CN2 (stereo not drawn) [AN-850, hydrochloride] | 0.3 | 1.59 ± 0.39 |  | 10^−3-100 nM |  | Reduction in TNF-α levels, RAW Macrophages range (TNF-α, RAW 264.7 cells; [7]): None; Reduction in NO levels, BV2 Microglia % peak reduction [3]: 37.6 ± 5.0%; Reduction in NO levels by at >20%, BV2 Microglia range [3]: 10^−2-100 nM; Reduction in TNF-α levels, BV2 Microglia % peak reduction [4]: 30.5 ± 0.6%; ChE inhibition in plasma, muscle, and spleen [5]: inhibited ChE; IC50 (AChE): 19 µM
CCOC(=O)CCC1CNc2cccc(OC(=O)N(C)CC)c21.O=C(O)CC(O)(CC(=O)O)C(=O)O (stereo not drawn) [AN-871] |  |  |  |  | no effect ≦ 100 μM | 
CCN(C)C(=O)Oc1cccc2[nH]cc(CCN)c12.Cl [AN-886, 2-(4-((ethyl(methyl)carbamoyl)oxy)-1H-indol-3-yl)ethanaminium hydrochloride] |  |  |  |  | no effect ≦ 100 μM | 
